According to patent US20230318003A1, “REDOX FLOW BATTERY AND AQUEOUS-BASED SOLUTION” (RIVUS AB, priority 2020, published 2023):

Experiments:
[1] = Solubility testing, saturated solutions in milli-Q water at ambient temperature; settings: thermodynamic from solid
Experimental: The solutions were centrifuged at 12,500 rpm for 30 minutes. 100 μl of the supernatant were pipetted in triplicates from each of the solution into separate empty vials of known weights. The content of these vails were left to dry in a vacuum oven overnight. The final weights of the vials were determined and the amount of each of the compounds calculated from the weight difference. Solubility in mmol/L for each compound was finally determined.

[2] = Cyclic voltammetry of the compounds of Examples 3, 4a and 4b; type: physicochemical; settings: for Decomposition during cyclic voltammetry: both acidic and neutral electrolytes; for Redox potential vs. Ag/AgCl, first redox process / Redox potential vs. Ag/AgCl, second redox process: neutral electrolyte; for Redox potential E^0′ vs. Ag/AgCl: single redox process
Experimental: All CV measurements were carried out in a custom built 10 ml three-electrode electrochemical cell. The lower part of the cell holds the electrolyte of interest. In the upper part are ports to hold the working electrode, reference electrode and auxiliary electrode as well as inlet and outlet for N2 gas. […] Cyclic voltammograms were recorded at scan rates of 10 mVs^−1, 20 mVs^−1, 50 mVs^−1, 100 mVs^−1 and 250 mVs^−1 at room temperature. Prior to measurements, the electrolyte was de-aerated by continuously purging with N2 gas for 10-15 minutes and maintaining a N2 flow-blanket throughout the experiment to minimize any environmental contamination. Also, 80% of the ohmic drop was compensated for during the experiment using a positive feedback-loop.

[3] = Cyclic voltammetry of NDI at different pH values; type: physicochemical; settings: pH below 3
Source text: The electrochemistry of NDI was examined by CV at a range of different pH values, to gain understanding of the electron transfer reaction mechanism. FIG. 2a and FIG. 2b show cyclic voltammograms (CVs) for NDI at pH 7 and 0, respectively. […] The broadness of the first reduction at pH 7, is assumed to be due to the possibility for the first electron to add at different positions of NDI.
A plot of the reduction potentials for NDI at different pHs is seen in FIG. 3. […] The second reduction, the triangles in the figure, has a slope of 91 mV/pH at pH below 3, indicating a one electron-1.5 proton relationship, according to the Nernst equation.

[4] = Diffusion NMR of NDI; type: physicochemical
Source text: Addition of three protons to each NDI molecule at pH values as high as 3 is unlikely, since the third proton would be at a weakly basic carbonyl. This is further supported by the lack of buffering at lower pHs in the titration curve in FIG. 1.

[5] = Bulk electrolysis cycling of NDI; type: physicochemical; settings: 25 mM in pH 6.4 phosphate buffer, twelve cycles at 15 mA, roughly a week
Experimental: A solution of 25 mM NDI in pH 6.4 sodium phosphate buffer was cycled in a bulk electrolysis cell, where all of the material is reduced, as opposed to CV and RDE, where only a small fraction of the material is probed. A galvanostatic BE setting was used, where a constant current of 40 mA was applied. The electrolysis was intermittently paused, allowing for CVs to be collected to be able to quantify the amount of NDI that has been reduced. The peak heights from the CVs were correlated to the passed current, and it was seen that the complete capacity of NDI could be accessed using bulk electrolysis. […] For NDI, the reduction of the molecule lowers the monomer concentration in the solution, and the dimerization equilibrium is shifted in the direction of dimer separation.
After the initial sweep, continuous cycling at a current of 15 mA was performed for twelve cycles. A CV was collected after the cycling had finished, roughly a week after starting. […] Apart from that, the NDI molecule is synthesized via a one-step reaction, at room temperature in water with an almost 100% yield. It is water soluble up to 0.7 M, and has a lower reduction potential than any of the other examined molecules, resulting in a high battery voltage in the application.

[6] = Titration of tertiary NDI in water with 1 M sodium hydroxide; type: physicochemical; settings: 50 ml 15.6 mM tertiary NDI in water
Source text: The quaternization is only necessary if the molecule is to be examined at higher pH values, since the tertiary amine sidechains are protonated for pH values less than about 8 (pKa≈8.1) as shown by the titration curve in FIG. 1. In FIG. 1 it can be seen that the molecule deprotonates above pH 8 and precipitates out of solution. For actual flow battery applications, i.e. redox flow battery according to the present invention, the last reaction step is thus possible to omit.

[7] = Water solubility of NDI; type: physicochemical
[8] = 0.5M sodium phosphate buffer of pH 7, scan rate 10 mVs^−1
[9] = 0.5M sodium phosphate buffer of pH 7, scan rate 20 mVs^−1
[10] = 0.5M sodium phosphate buffer of pH 7, scan rate 50 mVs^−1
[11] = 0.5M sodium phosphate buffer of pH 7, scan rate 100 mVs^−1
[12] = 0.5M sodium phosphate buffer of pH 7, scan rate 250 mVs^−1
[13] = 1M sulfuric acid, scan rate 10 mVs^−1
[14] = 1M sulfuric acid, scan rate 20 mVs^−1
[15] = 1M sulfuric acid, scan rate 50 mVs^−1
[16] = 1M sulfuric acid, scan rate 100 mVs^−1
[17] = 1M sulfuric acid, scan rate 250 mVs^−1
[18] = acidic electrolyte (1 M sulfuric acid)

C[N+](C)(C)CCCN1C(=O)c2cc(Br)c3c4c(cc(Br)c(c24)C1=O)C(=O)N(CCC[N+](C)(C)C)C3=O [Compound 3, 3,3′-(4,9-dibromo-1,3,6,8-tetraoxo-1,3,6,8-tetrahydrobenzo[Imn][3,8]phenanthroline-2,7-diyl)bis(N,N,N-trimethylpropan-1-aminium) chloride]
solubility ([1]; Average, average of tests 1-3): 149 mM
solubility ([1]; Test 1, milli-Q water): 142 mM
solubility ([1]; Test 2, milli-Q water): 151 mM
solubility ([1]; Test 3, milli-Q water): 154 mM
Potential vs. Ag/AgCl, first pair of peaks ([2]; acidic electrolyte, first redox process): ~−0.13 V
Potential vs. Ag/AgCl, second pair of peaks ([2]; acidic electrolyte, second redox process): ~−0.38 V
Decomposition during cyclic voltammetry [2]: no evidence of decomposition
Redox potential vs. Ag/AgCl, first redox process ([2]; first redox process): −0.05 V
Redox potential vs. Ag/AgCl, second redox process ([2]; second redox process): −0.65 V

4,9-dibromo-2,7-bis(3-(dimethylamino)propyl)benzo[Imn][3,8]phenanthroline-1,3,6,8(2H,7H)-tetraone [Compound 1]
E^0′ vs. Ag/AgCl [2, 8]: −0.43 V
peak current ratio ipa/ipc [2, 8]: 0.82 ± 0.04
ΔEp [2, 8]: 49.21 ± 8.49 mV
E^0′ vs. Ag/AgCl [2, 9]: −0.43 V
peak current ratio ipa/ipc [2, 9]: 0.80 ± 0.05
ΔEp [2, 9]: 51.87 ± 9.16 mV
E^0′ vs. Ag/AgCl [2, 10]: −0.43 V
peak current ratio ipa/ipc [2, 10]: 0.74 ± 0.06
ΔEp [2, 10]: 61.48 ±12.09 mV
E^0′ vs. Ag/AgCl [2, 11]: −0.43 V
peak current ratio ipa/ipc [2, 11]: 0.69 ± 0.07
ΔEp [2, 11]: 68.59 ± 14.05 mV
E^0′ vs. Ag/AgCl [2, 12]: −0.43 V
peak current ratio ipa/ipc [2, 12]: 0.63 ± 0.07
ΔEp [2, 12]: 86.49 ± 20.99 mV
E^0′ vs. Ag/AgCl [2, 13]: −0.13 V
peak current ratio ipa/ipc [2, 13]: 0.91 ± 0.05
ΔEp [2, 13]: 63.67 ± 10.03 mV
E^0′ vs. Ag/AgCl [2, 14]: −0.13 V
peak current ratio ipa/ipc [2, 14]: 0.92 ± 0.01
ΔEp [2, 14]: 63.31 ± 10.97 mV
E^0′ vs. Ag/AgCl [2, 15]: −0.13 V
peak current ratio ipa/ipc [2, 15]: 0.89 ± 0.02
ΔEp [2, 15]: 64.97 ± 10.46 mV
E^0′ vs. Ag/AgCl [2, 16]: −0.13 V
peak current ratio ipa/ipc [2, 16]: 0.87 ± 0.00
ΔEp [2, 16]: 66.31 ± 9.29 mV
E^0′ vs. Ag/AgCl [2, 17]: −0.13 V
peak current ratio ipa/ipc [2, 17]: 0.82 ± 0.01
ΔEp [2, 17]: 71.25 ± 11.85 mV
Redox potential E^0′ vs. Ag/AgCl [2, 18]: −0.13 V
Redox potential E^0′ vs. Ag/AgCl ([2]; neutral electrolyte (0.5 M sodium phosphate buffer pH 7)): −0.43 V

CN(C)CCCN1C(=O)c2ccc3c4c(ccc(c24)C1=O)C(=O)N(CCCN(C)C)C3=O [NDI, 2,7-bis(3-(dimethylamino)propyl)benzo[Imn][3,8]phenanthroline-1,3,6,8(2H,7H)-tetraone]
Slope of second reduction potential versus pH [3]: 91 mV/pH
Diffusion coefficient ([4]; acid solution): 2.57 ×10^−6 cm^2 s^−1
Diffusion coefficient ([4]; neutral solution): 2.34 ×10^−6 cm^2 s^−1
Material degradation after cycling (CV before vs after) [5]: no or little material degradation
pKa of tertiary amine sidechains [6]: ≈ 8.1
Water solubility [7]: up to 0.7 M

C[N+](C)(C)CCCN1C(=O)c2ccc3c4c(ccc(c24)C1=O)C(=O)N(CCC[N+](C)(C)C)C3=O [Compound 2, Benzo[Imn][3,8]phenanthroline-2,7-dipropanaminium, 1,3,6,8-tetrahydro-N,N,N,N′,N′,N′-hexamethyl-1,3,6,8-tetraoxo-, dichloride]
solubility ([1]; Average, average of tests 1-3): 678 mM
solubility ([1]; Test 1, milli-Q water): 653 mM
solubility ([1]; Test 2, milli-Q water): 689 mM
solubility ([1]; Test 3, milli-Q water): 691 mM
Redox potential E^0′ vs. Ag/AgCl [2, 18]: ~−0.32 V
Decomposition during cyclic voltammetry [2]: no evidence of decomposition
Redox potential vs. Ag/AgCl, first redox process ([2]; first redox process): ~−0.30 V
Redox potential vs. Ag/AgCl, second redox process ([2]; second redox process): ~−0.63 V
